Test results published in patent US20090005407A1, “PARTICULATE (3'-CHLOROBIPHENYL-4-YL)(1-(PYRIMIDIN-2-YL)PIPERIDIN-4-YL)METHANONE AND METHODS OF ITS USE” (priority 2007, published 2009).

What was measured:
water solubility = type: physicochemical
mice = settings: administered to mice; see U.S. Ser. Nos. 11/433,057 and 11/433,626; cited from earlier work

water solubility (water solubility): poorly water soluble
SMILES: O=C(c1ccc(-c2cccc(Cl)c2)cc1)C1CCN(c2ncccn2)CC1 [(3′-chlorobiphenyl-4-yl)(1-(pyrimidin-2-yl)piperidin-4-yl)methanone]
effect on learning and memory (mice): increase learning and memory
